Experimental data taken from patent US20040137426A1, “Gp41 peptides and methods based thereon for inhibiting HIV fusion to target cells” (priority 2002, published 2004).
≈ marks a conversion by molar mass, not a printed value.

Assays:
HIV-1 IIIB = type: cell-based; conditions: lab-adapted HIV-1 IIIB
Protocol: Both involved the culture of the virus with the peptide or its scrambled form for 1 hr at 37° C., 5% CO2 and then subsequent addition of target cells for 7 days. Inhibition was assessed using an enzyme-linked immunosorbent assay (ELISA) of viral core protein p24 antigen.

JRCSF = assay: Primary isolate infectivity in peripheral blood lymphocytes, p24 ELISA: JRCSF; type: cell-based, HIV-1
Protocol: (§1) Infectivity studies were performed using the inhibition of HIV-1 infection of the gp41 derived peptides using receptor bearing cells for both HIV-1 T cell line adapted virus (HIV-1 IIIB) in MT2 cells and primary isolate virus (SF162, JRCSF and 89.6) in peripheral blood lymphocytes. Both involved the culture of the virus with the peptide or its scrambled form for 1 hr at 37° C., 5% CO2 and then subsequent addition of target cells for 7 days. Inhibition was assessed using an enzyme-linked immunosorbent assay (ELISA) of viral core protein p24 antigen.

89.6 = assay: Primary isolate infectivity in peripheral blood lymphocytes, p24 ELISA: 89.6; type: cell-based, HIV-1; conditions: primary isolate 89.6
Protocol: as §1

SF162 = assay: Primary isolate infectivity in peripheral blood lymphocytes, p24 ELISA: SF162; type: cell-based, HIV-1
Protocol: as §1

BR94 = assay: Primary isolate infectivity in PBMCs: patient isolate BR94 (clade B); type: cell-based, HIV-1
HIV-1 = conditions: qualitative comparison
Protocol: Peptides were tested in vitro for inhibition of early steps in cell-free HIV-1 infection and direct cell-to-cell spread of virus using T-cell line-adapted and primary isolates and recombinant HIV-1 viruses pseudotyped for env using CCR5, CXCR4 or both coreceptors.
Selected de novo designed peptides according to the invention (S291, N36E, W37Q and W371) and the new analogues of T20, T21 and DP219 were evaluated for inhibition of both cell-free HIV-1 infection and of direct cell-to-cell spread using a range of T-cell line-adapted and primary isolates and recombinant HIV-1 pseudotyped for env derived from patient isolates of different clades.

In the case of `CC[C@H](C)[C@H](NC(=O)[C@H](CC(C)C)NC(=O)[C@H](CO)NC(=O)[C@H](Cc1ccc(O)cc1)NC(=O)[C@@H](NC(=O)[C@H](CC(C)C)NC(=O)[C@H](CO)NC(=O)[C@@H](NC(=O)[C@H](Cc1ccc(O)cc1)NC(=O)[C@H](CC(N)=O)NC(=O)[C@H](CC(=O)O)NC(=O)[C@@H](NC(=O)[C@H](CCC(=O)O)NC(=O)[C@H](CCCNC(=N)N)NC(=O)[C@H](CCC(=O)O)NC(=O)[C@H](Cc1c[nH]c2ccccc12)NC(=O)[C@H](CCC(=O)O)NC(=O)[C@H](CCSC)NC(=O)[C@H](Cc1c[nH]c2ccccc12)NC(=O)[C@@H](NC(=O)[C@H](CCSC)NC(=O)[C@H](CC(N)=O)NC(=O)[C@H](CC(N)=O)NC(=O)[C@H](Cc1c[nH]c2ccccc12)NC(=O)[C@@H](NC(=O)[C@H](CCC(N)=O)NC(=O)[C@H](CCC(=O)O)NC(=O)[C@H](CC(C)C)NC(=O)[C@@H](N)CO)[C@@H](C)CC)[C@@H](C)O)[C@@H](C)CC)[C@@H](C)O)[C@@H](C)CC)C(=O)O` [Peptide S29I], the “ID50% HIV-1IIIB infectivity” value (HIV-1 IIIB) is reported as 9.37 µg/mL (≈ 2.55 µM), the “ID90 HIV-1IIIB infectivity” value (HIV-1 IIIB) is reported as 25 µg/mL (≈ 6.8 µM) and the “MIC HIV-1IIIB infectivity” value (HIV-1 IIIB) is reported as 6.3 µg/mL (≈ 1.71 µM). The “Primary isolate (ID50) JRCSF” value (JRCSF) was >50 µg/mL, the “Primary isolate (ID50) 89.6” value (89.6) was 50 µg/mL and the “Primary isolate (ID50) SF162” value (SF162) was 0.06 µg/mL. For the same compound, the “Primary isolate (ID50) BR94” value (BR94) was 0 µg/mL and the “activity compared with the new analogues of T-20, T-21 and DP219” value (HIV-1) was “broadly similar levels of activity”.
